Assay results published in the supplement of paper PMC4862054.

Experiments:
Details in all cases: incubation time: 72 h
DU-4475 [1] = assay: normalised response (% of control), CellTiter-Glo; higher = more viable cells (100 = DMSO, 0 = benzethonium chloride kill control)
How it was run: (§1)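 For each plate, 0.1 % DMSO was set to 100 and a positive kill control to 0. Breast cancer cell lines (20 µl suspension) were seeded into 384-well plates already holding compound at 5 concentrations in 10-fold steps over a 10,000-fold range chosen per compound, and incubated for 72 h. CellTox Green fluorescence at 485/520 nm was read before CellTiter-Glo luminescence, which followed 10 min at room temperature. Each value is the normalised signal at one concentration.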

MDA-MB-468 [2] = assay: as above
How it was run: as §1

MDA-MB-436 [3] = assay: as above
How it was run: as §1

BT-474 [4] = assay: as above
How it was run: as §1

CAL-85-1 [5] = assay: as above
How it was run: as §1

CAL-120 [6] = assay: as above
How it was run: as §1

MCF-10A [7] = assay: as above
How it was run: as §1

CAL-148 [8] = assay: as above
How it was run: as §1

HCC1143 [9] = assay: as above
How it was run: as §1

BT-549 [10] = assay: as above
How it was run: as §1

HDQ-P1 [11] = assay: as above
How it was run: as §1

MDA-MB-231 [12] = assay: as above
How it was run: as §1

Hs578T [13] = assay: as above
How it was run: as §1

CAL-51 [14] = assay: as above
How it was run: as §1

HCC1937 [15] = assay: as above
How it was run: as §1

MDA-MB-453 [16] = assay: as above
How it was run: as §1

SK-BR-3 = assay: as above
How it was run: as §1

HCC1599 [17] = assay: as above
How it was run: as §1

MFM-223 [18] = assay: as above
How it was run: as §1

DU-4475 [19] = assay: normalised response (% of control), CellTox Green; higher = less cell death (100 = DMSO, 0 = benzethonium chloride kill control)
How it was run: as §1

MDA-MB-468 [20] = assay: as above
How it was run: as §1

MDA-MB-436 [21] = assay: as above
How it was run: as §1

BT-474 [22] = assay: as above
How it was run: as §1

CAL-85-1 [23] = assay: as above
How it was run: as §1

CAL-120 [24] = assay: as above
How it was run: as §1

MCF-10A [25] = assay: as above
How it was run: as §1

CAL-148 [26] = assay: as above
How it was run: as §1

HCC1143 [27] = assay: as above
How it was run: as §1

BT-549 [28] = assay: as above
How it was run: as §1

HDQ-P1 [29] = assay: as above
How it was run: as §1

MDA-MB-231 [30] = assay: as above
How it was run: as §1

Hs578T [31] = assay: as above
How it was run: as §1

CAL-51 [32] = assay: as above
How it was run: as §1

HCC1937 [33] = assay: as above
How it was run: as §1

MDA-MB-453 [34] = assay: as above
How it was run: as §1

HCC1599 [35] = assay: as above
How it was run: as §1

MFM-223 [36] = assay: as above
How it was run: as §1

Compound | normalised response (DU-4475 [1]) | normalised response (MDA-MB-468 [2]) | normalised response (MDA-MB-436 [3]) | normalised response (BT-474 [4]) | normalised response (CAL-85-1 [5]) | normalised response (CAL-120 [6]) | normalised response (MCF-10A [7]) | normalised response (CAL-148 [8]) | normalised response (HCC1143 [9]) | normalised response (BT-549 [10]) | normalised response (HDQ-P1 [11]) | normalised response (MDA-MB-231 [12]) | normalised response (Hs578T [13]) | normalised response (CAL-51 [14]) | normalised response (HCC1937 [15]) | normalised response (MDA-MB-453 [16]) | normalised response (SK-BR-3) | normalised response (HCC1599 [17]) | normalised response (MFM-223 [18]) | normalised response (DU-4475 [19]) | normalised response (MDA-MB-468 [20]) | normalised response (MDA-MB-436 [21]) | normalised response (BT-474 [22]) | normalised response (CAL-85-1 [23]) | normalised response (CAL-120 [24]) | normalised response (MCF-10A [25]) | normalised response (CAL-148 [26]) | normalised response (HCC1143 [27]) | normalised response (BT-549 [28]) | normalised response (HDQ-P1 [29]) | normalised response (MDA-MB-231 [30]) | normalised response (Hs578T [31]) | normalised response (CAL-51 [32]) | normalised response (HCC1937 [33]) | normalised response (MDA-MB-453 [34]) | normalised response (HCC1599 [35]) | normalised response (MFM-223 [36])
CO[C@H](C(=O)[C@@H](O)[C@@H](C)O)[C@@H]1Cc2cc3cc(O[C@H]4C[C@@H](O[C@@H]5C[C@@H](O)[C@H](O)[C@@H](C)O5)[C@H](O)[C@@H](C)O4)c(C)c(O)c3c(O)c2C(=O)[C@H]1O[C@H]1C[C@@H](O[C@@H]2C[C@@H](O)[C@@H](O[C@@H]3C[C@](C)(O)[C@H](O)[C@@H](C)O3)[C@@H](C)O2)[C@H](O)[C@@H](C)O1 [Plicamycin] (100 nM) | 105% | 105% | 103% | 100% | 100% | 103% | 108% | 112% | 104% | 103% | 99.5% | 104% | 104% | 66.4% | 98% | 114% | 102% | 99.4% | 103% | 102% | 131% | 96.8% | 99.4% | 99% | 102% | 93.4% | 107% | 101% | 98.7% | 94.3% | 109% | 86% | 85.5% | 119% | 105% | 106% | 100%
CC/C(=C(\c1ccccc1)c1ccc(OCCN(C)C)cc1)c1ccccc1 [Tamoxifen] (100 nM) | 105% | 98% | 99.1% | 97.9% | 99.9% | 110% | 107% | 110% | 108% | 99.2% | 105% | 107% | 105% | 91.5% | 100% | 102% | 99.4% | 101% | 103% | 105% | 71.4% | 74.1% | 100% | 105% | 103% | 106% | 106% | 113% | 99.3% | 87.8% | 91.3% | 97.7% | 115% | 91.9% | 100% | 103% | 103%
C[C@@H](C(=O)O)c1ccc(-c2ccccc2)c(F)c1 [Tarenflurbil] (100 nM) | 101% | 96.4% | 97.9% | 101% | 95% | 98.3% | 91.7% | 90.3% | 94.8% | 97.3% | 95.2% | 97.3% | 102% | 91.1% | 91.2% | 101% | 91.6% | 106% | 96.2% | 98.1% | 101% | 72% | 93.2% | 101% | 103% | 61.1% | 102% | 98.1% | 98.8% | 93% | 96.1% | 89.7% | 92.8% | 100% | 100% | 99.3% | 103%
Cn1nnc2c(C(N)=O)ncn2c1=O [Temozolomide] (100 nM) | 96.8% | 100% | 98.8% | 95.4% | 93.6% | 99.7% | 103% | 98.8% | 101% | 106% | 93.2% | 101% | 103% | 107% | 88.2% | 102% | 96.5% | 90.9% | 104% | 101% | 92.8% | 104% | 97.8% | 107% | 99.2% | 89.1% | 100% | 96.3% | 101% | 81.8% | 110% | 89.4% | 108% | 82.5% | 105% | 89.7% | 102%
CCc1c(C(=O)C(N)=O)c2c(OCC(=O)O)cccc2n1Cc1ccccc1 [Varespladib] (100 nM) | 98.8% | 95.3% | 98.5% | 98% | 98.5% | 111% | 105% | 103% | 103% | 100% | 101% | 103% | 104% | 95.6% | 102% | 97% | 101% | 95.9% | 102% | 104% | 88.9% | 106% | 104% | 99.3% | 102% | 112% | 102% | 92.1% | 99.1% | 96% | 104% | 99.9% | 96.8% | 83.1% | 105% | 97% | 91.1%
